For data set [1], the target named is T1, mIDH1R132H (Homo sapiens, UniProt O75874, R132H).
T1 construct: purchased BPS Bioscience, San Diego, CA, USA
The following applies: cited from earlier work.

A short description of data set [2]: stability of reference compounds in DMSO. The class given is physicochemical. The following applies: room temperature, at least 28 h, non-labeled reference compounds. Here is the method: The in vitro stability of the radiolabeled probes was evaluated by incubation studies with phosphate-buffered saline (PBS) and rat serum.
A solution of the corresponding reference compound in DMSO (1 mg/mL) was incubated at room temperature for 28–30 h, during which aliquots were removed every few hours and analyzed by analytical HPLC. The fraction of intact reference compound at each time point was calculated by dividing the peak area of the reference compound by the total area of all peaks in the chromatogram and plotted as a function of time.

Data set [3] has as its target T1, mIDH1R132H. The data set can be described thus: enzymatic inhibition assay with commercial IDH1 (R132H) kit. The class given is biochemical. The following applies: for Amax (fit parameter) / Amin (fit parameter) / Hill slope: Hill fit; for Amax (fit parameter) / Amin (fit parameter) / Hill slope / IC50: parentheses = 95% CI; for IC50: non-labeled compounds, n = 3, read-out: IC50 for suppression of mIDH1R132H. Here is the method: The inhibitory activity of the candidate probes against mIDH1 was evaluated by enzymatic assays with serially diluted solutions of the non-labeled compounds using a commercially available assay kit (IDH1 (R132H) from BPS Bioscience, San Diego, CA, USA). IC50 values were determined with GraphPad Prism 4.00 by fitting the resulting dose-response curves with the Hill function.
Data are shown as mean ± standard deviation (n = 3). For additional fit parameters and 95% confidence intervals, see Table S12 in Section S4.1.4 of Supplementary Materials. TEXT PRINTED IN THE PICTURE: (S)-2: IC50 [nM]: 102 | (R)-2: IC50 [nM]: 1358 | 4: IC50 [nM]: 713 | 5: IC50 [nM]: 8279
4.1.4. Inhibitory potency (IC50)
Values in parenthesis indicate 95% confidence intervals.

The next data set has as its system U87-mIDH cells. Nature of the data set: cellular uptake in U87-mIDH cells. The class given is cell-based, human. The following applies: U87-mIDH cells; for cellular uptake: incubation 1 h. On the procedure:
(§1) Consistent with this assumption, uptake of [^18F]4 and, to a lesser extent, the ^18F-fluoroethoxylated analog [^18F]5 by both cell lines was considerably higher than that of (S)-[^18F]2.
(§2) Human glioblastoma cells with a c.395G>A knock-in mutation encoding mIDH1R132H (HTB-14IG™) and the corresponding wildtype cells (HTB-14™) were purchased from the American Type Culture Collection (ATCC). The cells were grown under standard culture conditions (5% CO2 and 95% air at 37 °C) in Eagle’s Minimum Essential Medium (MEM) supplemented with 10% fetal bovine serum (FBS) and antibiotics (penicillin–streptomycin mixed solution, Gibco, Thermo Fisher Scientific, Oberhausen, Germany).
(§3) For the cellular uptake studies, 1.5 × 10^5 cells were seeded into gelatin-coated 12-well transwell plates and incubated in 1 mL MEM (without FBS and antibiotics) containing 18.5 kBq (0.5 µCi) of the corresponding radiotracer. After incubation at 21 °C for 1 h, the supernatant was collected, the cells were lysed with 40 mM NaOH and the radioactivity of both fractions was measured with a gamma counter. The total protein concentration of the cell lysate was measured by a bicinchoninic acid (BCA) assay. The radiotracer uptake was calculated as the ratio of radioactivity in the cell fraction and the supernatant and normalized by protein content (% uptake/100 µg protein). Statistical analysis of the results was performed with Originlab Pro 2023b using two-tailed t-tests with a significance level of 0.05 to identify significant differences between groups.

A short description of data set [4]: lipophilicity by shake-flask method (n-octanol/water or PBS). The class given is physicochemical. Particulars: triplicate; for logD: n-octanol/PBS pH 7.4, shake-flask, read-out: logD7.4 Exp. Determined; for logP: n-octanol/water, shake-flask. On the procedure:
As a measure for the lipophilicity of the four radiolabeled probes, their partition coefficients (logP) and distribution coefficients at pH 7.4 (logD7.4) were determined by the shake-flask method. Table 1 summarizes the results of these experiments and compares them with the predicted logD7.4 values calculated using the ADMETlab platform.
A solution of the corresponding radiotracer in DMSO (1 µL) was added to a mixture of n-octanol and PBS (pH = 7.4) or water (750 µL of each) in a 2 mL Eppendorf vial and the vial was vortexed for 2 min and centrifuged for another 2 min to separate the two phases. A total of 300 µL of the upper n-octanol phase was then carefully removed from the top, while 300 µL of the aqueous phase was removed by piercing the bottom of the vial with a syringe and cannula to avoid contact with the organic phase. Both fractions were transferred into fresh vials and counted in a gamma counter to determine the ratio between the activity in the organic and the aqueous phase. All measurements were performed in triplicate and the results are expressed as mean ± standard deviation of the logarithm of the partition coefficient between n-octanol and water (logP) or the logarithm of the distribution coefficient between n-octanol and PBS (logD7.4), respectively.

A further data set deals with U87-WT cells. Nature of the data set: cellular uptake in U87-WT cells. Type of data set: cell-based, human. The following applies: incubation 1 h. On the procedure:
as §1, §2, §3

Read-outs that look alike come from different tables or passages of the source. Where only a bound is given, the exact number is not on record here.

T1 sequence (O75874 whole entry R132H): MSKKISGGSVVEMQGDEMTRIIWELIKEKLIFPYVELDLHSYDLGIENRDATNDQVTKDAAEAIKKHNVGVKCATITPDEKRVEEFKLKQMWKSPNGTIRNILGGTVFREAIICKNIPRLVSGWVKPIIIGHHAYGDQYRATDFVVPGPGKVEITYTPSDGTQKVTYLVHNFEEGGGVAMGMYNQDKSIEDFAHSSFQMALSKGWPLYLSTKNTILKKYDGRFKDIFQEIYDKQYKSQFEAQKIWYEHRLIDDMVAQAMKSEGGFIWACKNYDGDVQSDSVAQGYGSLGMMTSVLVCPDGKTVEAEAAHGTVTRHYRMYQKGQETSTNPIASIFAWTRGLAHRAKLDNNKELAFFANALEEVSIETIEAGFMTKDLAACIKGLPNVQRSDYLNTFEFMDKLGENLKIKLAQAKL

For `CC(Nc1ccc(C#N)n(C)c1=O)c1cc2cc(F)ccc2[nH]c1=O` (centres unmarked) [mIDH-23], the IC50 (in general, the concentration at which inhibition is half-maximal) on mIDH1R132H [1] (biochemical assays, read-out: IC50 (reported potency for inhibition of mIDH1R132H)) is 0.023 µM. The “Selectivity (ratio of biochemical IC50 values for mIDH1R132H and the wildtype enzyme)” value at mIDH1R132H [1] is recorded as more than 400.

`COc1cc(NCc2cc3cc(Cl)ccc3[nH]c2=O)ccc1C#N` [compound 3]: the “Selectivity (ratio of biochemical IC50 values for mIDH1R132H and the wildtype enzyme)” value on mIDH1R132H [1] is listed as more than 700.

As for `COc1cc(NCc2cc3cc(F)ccc3[nH]c2=O)ccc1C#N` [compound 4, 4-{[(6-Fluoro-2-oxo-1,2-dihydroquinolin-3-yl)methyl]amino}-2-methoxybenzonitrile], the “decomposition in DMSO” value in data set [2] was “less than 10%”. Besides, on mIDH1R132H [3], the “fold lower potency than (S)-2 in functional assays” value is “roughly 7 fold”, the “Amax (fit parameter)” value is 98 (96−100) %, the “Amin (fit parameter)” value is reported as 1.8 (0.6−3.0) % and the Hill slope (commonly a measure of the steepness of the concentration-response curve) was 2.8 (2.5−3.0). Further, the IC50 at mIDH1R132H [3] came to 0.713 µM.

`C[C@@H](Nc1ccc(C#N)n(C)c1=O)c1cc2cc([18F])ccc2[nH]c1=O` [(R)-[^18F]2] came in with a cellular uptake in the data set with U87-mIDH cells of 0.5 ± 0.1 % per 100 µg protein. Besides, in data set [4], the logD is 2.51 ± 0.11; the logP (as a rule, the decadic logarithm of the partition coefficient of the neutral form, usually between octanol and water) is “negative”.

Consider `C[C@H](Nc1ccc(C#N)n(C)c1=O)c1cc2cc([18F])ccc2[nH]c1=O` [(S)-[^18F]2], for which, in the data set on U87-mIDH cells, the “fold higher cellular uptake than (R)-[^18F]2” value is recorded as “approx. 2 fold” and the cellular uptake stood at 0.9 ± 0.2 % per 100 µg protein. The logD in data set [4] was 2.51 ± 0.11. In the data set with U87-WT cells, the cellular uptake was 1.2 ± 0.7 % per 100 µg protein.

Take `C[C@H](Nc1ccc(C#N)n(C)c1=O)c1cc2cc(F)ccc2[nH]c1=O` [(S)-2, (S)-5-[{1-(6-Fluoro-2-oxo-1,2-dihydroquinoline-3-yl)ethyl}amino]-1-methyl-6-oxo-1,6-dihydropyridine-2-carbonitrile]: the “decomposition in DMSO” value in data set [2] is listed as “no decomposition”. Further, at mIDH1R132H [3], the “Amax (fit parameter)” value is given as 95 (93−97) %, the “Amin (fit parameter)” value is on record as 33 (30−35) %, the Hill slope is on record as 5.6 (4.0−7.2) and the IC50 amounted to 0.102 µM.

For `N#Cc1ccc(NCc2cc3cc(F)ccc3[nH]c2=O)cc1OCC[18F]` [[^18F]5], the figures for the cellular uptake in the data set on U87-mIDH cells and in the data set on U87-WT cells were 3.2 ± 0.6 % per 100 µg protein and 3.7 ± 0.6 % per 100 µg protein, respectively. For the same compound, the logD in data set [4] was 2.72 ± 0.06. The logP in data set [4] (read-out: logP) was 2.77 ± 0.03.

With `C[C@@H](Nc1ccc(C#N)n(C)c1=O)c1cc2cc(F)ccc2[nH]c1=O` [(R)-2, (R)-5-[{1-(6-Fluoro-2-oxo-1,2-dihydroquinoline-3-yl)ethyl}amino]-1-methyl-6-oxo-1,6-dihydropyridine-2-carbonitrile], at mIDH1R132H [3], the “fold higher IC50 value relative to (S)-enantiomer” value is recorded as more than 10 fold, the “Amax (fit parameter)” value is 79 (72−87) %, the “Amin (fit parameter)” value is on record as 28 (25−31) % and the Hill slope is recorded as 3.0 (1.3−4.8). The IC50 at mIDH1R132H [3] came to 1.36 µM.

Consider `N#Cc1ccc(NCc2cc3cc(F)ccc3[nH]c2=O)cc1OCCF` [compound 5, 4-(((6-Fluoro-2-oxo-1,2-dihydroquinolin-3-yl)methyl)amino)-2-(2-fluoroethoxy)benzonitrile], for which the “decomposition in DMSO” value in data set [2] is given as “less than 10%”. In addition, on mIDH1R132H [3], the “Amax (fit parameter)” value is 41 (36−45) %, the “Amin (fit parameter)” value is on record as 3 (2−3) %, the Hill slope was 2.1 (1.6−2.7) and the IC50 was found to be 8.28 µM.
